In PubChem BioAssay (NCI) one finds TGI data, which are given here for 14 compounds.

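96-well plates; 48 h exposure; 5 concentrations. Endpoints by linear interpolation between flanking doses. Not reached: highest tested concentration assigned. The concentration for full growth arrest is given as TGI.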

Some test systems named below: IGROV1 ovarian; SR leukemia; SW-620 colon; OVCAR-5 ovarian; OVCAR-4 ovarian; KM12 colon; CCRF-CEM leukemia; UO-31 renal; HT29 colon; PC-3 prostate; NCI-H522 lung.
Common to all, as to experiment: growth of human tumour cells (NCI), 48 h

On to `COc1cc(C2C3=C(CCCC3=O)N(c3ccc(C)cc3)C3=C2C(=O)CCC3)c([N+](=O)[O-])cc1OC`, for which the TGI with IGROV1 ovarian, in the assay with SR leukemia, with SW-620 colon, with OVCAR-5 ovarian, in the assay on OVCAR-4 ovarian and with KM12 colon was more than 100 µM in each case. Also, the TGI with CCRF-CEM leukemia, in the assay with UO-31 renal, with HT29 colon and in the assay with PC-3 prostate was more than 100 µM each time.

On to `O=[N+]([O-])/C=C(\CS(=O)(=O)c1ccccc1)c1ccc2c(c1)OCO2`, for which the TGI in the assay with IGROV1 ovarian is more than 100 µM; in the assay on SR leukemia, more than 100 µM; with SW-620 colon it was more than 100 µM; in the assay with OVCAR-5 ovarian it was 95.1 µM; with KM12 colon, 71.7 µM; in the assay on CCRF-CEM leukemia, more than 100 µM. For the same compound, the figures for the TGI in the assay on UO-31 renal, in the assay on NCI-H522 lung and with HT29 colon were 98.7 µM, more than 100 µM and more than 100 µM, respectively.

As for `O=C(N/N=C\c1cccc2ccccc12)Nc1cccc2ccccc12`, the TGI in the assay on IGROV1 ovarian was more than 100 µM; in the assay on SR leukemia, 13.6 µM; in the assay on SW-620 colon, more than 100 µM; in the assay on OVCAR-5 ovarian, more than 100 µM; with KM12 colon it was more than 100 µM; in the assay on CCRF-CEM leukemia it was more than 100 µM. In addition, the TGI in the assay with UO-31 renal, in the assay on NCI-H522 lung, in the assay on HT29 colon and with PC-3 prostate was more than 100 µM each time.

`COC(=O)C1CCC(=O)N1C(c1cc(OC)c(OC)c(OC)c1)c1cccc2ccccc12` (stereo not given): the TGI in the assay on IGROV1 ovarian, in the assay with SR leukemia, in the assay on SW-620 colon, in the assay with OVCAR-5 ovarian, in the assay on KM12 colon and in the assay on UO-31 renal was more than 100 µM throughout. Also, the TGI with NCI-H522 lung, in the assay on HT29 colon and in the assay on PC-3 prostate was more than 100 µM throughout.

On to `NCCCNOCCCN`, for which the TGI in the assay with SR leukemia, with SW-620 colon, in the assay with OVCAR-5 ovarian, in the assay with OVCAR-4 ovarian, with KM12 colon and with UO-31 renal was more than 100 µM each time. In addition, the TGI in the assay with NCI-H522 lung, in the assay with HT29 colon and in the assay on PC-3 prostate was more than 100 µM each time.

Turning to `COC(=O)c1c2c(cc3c1CC1(Cc4cc5c(c(C(C)=O)c4C1)CCCC5)C3)CCCC2` (stereo not given), the TGI is more than 100 µM in the assay on IGROV1 ovarian; 21 µM in the assay on SR leukemia; more than 100 µM with OVCAR-5 ovarian; more than 100 µM with OVCAR-4 ovarian; more than 100 µM in the assay on KM12 colon; 88.1 µM with CCRF-CEM leukemia. The TGI with NCI-H522 lung, in the assay with HT29 colon and in the assay on PC-3 prostate was more than 100 µM each time.

Regarding `S=c1nc(N/N=C/c2cccs2)c2cn[nH]c2[nH]1`, the TGI with IGROV1 ovarian was 75.1 µM; in the assay with SR leukemia it was 37.2 µM; in the assay with SW-620 colon it was more than 100 µM; in the assay on OVCAR-5 ovarian, 49.5 µM; in the assay with OVCAR-4 ovarian it was more than 100 µM; with KM12 colon it was 39.1 µM. Moreover, the TGI in the assay with UO-31 renal is more than 100 µM; in the assay with NCI-H522 lung it was 76.8 µM; in the assay with HT29 colon, more than 100 µM; in the assay with PC-3 prostate it was 37.5 µM.

As for `CCOc1ccc(C(C)c2cc3c(cc2OC)OCO3)cc1` (stereo not given), the TGI was more than 100 µM in the assay with IGROV1 ovarian; 0.442 µM with SR leukemia; more than 100 µM with SW-620 colon; more than 100 µM in the assay with OVCAR-5 ovarian; more than 100 µM in the assay with OVCAR-4 ovarian; more than 100 µM in the assay with UO-31 renal. In addition, the TGI in the assay on NCI-H522 lung is 0.166 µM; in the assay with HT29 colon, 12.4 µM.

`Cc1cc2c(c(S(=O)(=O)c3ccccc3[N+](=O)[O-])c1)NCCC2`: the TGI in the assay with IGROV1 ovarian, in the assay with SR leukemia, in the assay with SW-620 colon, with OVCAR-5 ovarian, in the assay on OVCAR-4 ovarian and in the assay with KM12 colon was more than 100 µM throughout. Moreover, the TGI in the assay on UO-31 renal, in the assay with NCI-H522 lung, in the assay on HT29 colon and in the assay on PC-3 prostate was more than 100 µM throughout.

Regarding `C=C(C)[C@H]1C2=CC(C)=C(O2)[C@@H](O)[C@H](C(=C)C)CCC2=C[C@H]1OC2=O`, the TGI in the assay on IGROV1 ovarian, in the assay on SR leukemia, in the assay on SW-620 colon, with OVCAR-5 ovarian, in the assay on OVCAR-4 ovarian and with KM12 colon was more than 100 µM throughout. For the same compound, the TGI with CCRF-CEM leukemia, with UO-31 renal, in the assay on NCI-H522 lung and with PC-3 prostate was more than 100 µM in each case.

On to `COC(=O)C1=C(O)CCCC(C2CCCCC(=O)C2C(=O)OC)=C1` (stereo not given), for which the TGI with IGROV1 ovarian, in the assay on SR leukemia, in the assay on SW-620 colon, in the assay on OVCAR-5 ovarian, in the assay with OVCAR-4 ovarian and in the assay on KM12 colon was more than 100 µM in each case. In addition, the TGI was 89.3 µM in the assay on CCRF-CEM leukemia, more than 100 µM in the assay with UO-31 renal, more than 100 µM in the assay on HT29 colon and more than 100 µM in the assay on PC-3 prostate.

Consider `CCCOP(=O)(OCCC)OC(C(F)(F)F)C(F)(F)F`, for which the TGI with SR leukemia, in the assay on OVCAR-5 ovarian, in the assay with KM12 colon, with CCRF-CEM leukemia, in the assay with UO-31 renal and in the assay with NCI-H522 lung was more than 100 µM in each case. In the assay on HT29 colon, this compound displayed a TGI of more than 100 µM.

Regarding `C=CC(=O)N1C/C(=C\c2ccc([N+](=O)[O-])cc2)C(=O)/C(=C/c2ccc([N+](=O)[O-])cc2)C1`, the TGI in the assay on IGROV1 ovarian is 0.419 µM; with SR leukemia it was more than 100 µM; with SW-620 colon, 1.96 µM; in the assay on OVCAR-5 ovarian, 1.18 µM; in the assay with OVCAR-4 ovarian, 1.33 µM; in the assay on KM12 colon, 0.607 µM. Also, the TGI was 0.375 µM in the assay on UO-31 renal, less than 0.038 µM in the assay on HT29 colon and 0.361 µM with PC-3 prostate.

In the case of `CC(=O)O[C@H]1C(=O)[C@@]2(C)[C@H]([C@H](OC(=O)c3ccccc3)[C@]3(O)C[C@H](OC(=O)[C@H](O)[C@@H](NC(=O)c4ccccc4)c4cccc(N(C)C)c4)C(C)=C1C3(C)C)[C@]1(OC(C)=O)CO[C@@H]1C[C@@H]2O`, the TGI with IGROV1 ovarian was more than 75 µM; with SR leukemia, 9.71 µM; in the assay on SW-620 colon it was more than 75 µM; in the assay on OVCAR-5 ovarian it was more than 15.8 µM; with OVCAR-4 ovarian, more than 43.6 µM; with KM12 colon it was more than 24.7 µM. Besides, the TGI in the assay on UO-31 renal was more than 64.6 µM; in the assay on NCI-H522 lung it was 3.69 µM; in the assay with HT29 colon, more than 32.9 µM; in the assay with PC-3 prostate it was 12.4 µM.
